This data set deals with HBV replication in HepG2/2.2.15 cells. Description: Antiviral efficiency of synthetic gRNA/Cas9 RNPs in HepG2/2.2.15 cells (HBsAg/HBeAg ELISA, HBV mRNA and HBV DNA real-time PCR). It is filed as cell-based, Hepatitis B virus (HBV). On the set-up: reduction in HBsAg expression / reduction of HBV mRNA expression: concentration or dose not given beside the values. The following applies: for reduction of HBV mRNA expression: HepG2/2.2.15 cells, real-time PCR, vs gRNAc. As for the experimental part: The HepG2.2.15 Human Hepatoblastoma cell line (Cat #SCC249, MilliporeSigma, Burlington, MA) is a traditional HBV cellular model that is widely used for studying HBV infection and drug development. HepG2.2.15 cells display constitutive HBV RNA transcription and DNA replication, but a lesser detection of cccDNA by Southern blot and PCR detection. The HepG2/2.2.15 cells were cultured in DMEM (Cat #MT10013CV, Fisher Scientific, Waltham, MA) supplemented with 10% Fetal bovine serum, penicillin, and streptomycin (50 ug/ml each; Fisher Scientific) and maintained at 37° C. and 5% CO2 atmosphere. The Amaxa Cell Line Nucleofector Kit V (Lonza VCA-1003) was used to deliver gRNA/Cas9 into HepG2/2.2.15 cells stably expressing HBV. For each transfection, 160 μM gRNA and 160 μM tracrRNA were first incubated at 37° C. for 30 minutes, followed by adding 80 μM Cas9 protein and incubating at 37° C. for 15 minutes. Approximately 40 μM of the gRNA/Cas9 complex was transfected into HepG2/2.2.15 cells (5×10^5) following the manufacturer's instructions. After 72 hours, the culture supernatants were harvested to measure HBV antigens by ELISA, and the cell pellets were used to determine HBV DNA or mRNA levels by real-time-PCR.
The levels of HBsAg and HBeAg in the supernatants of cell cultures were determined by ELISA (Cat #KA0286 and NBP2-600029, Novus Biologicals, Littleton, CO) according to the manufacturer's protocol. The optical density of antigen levels was measured at 450 nm using a microplate spectrophotometer. The samples were run in triplicate, and the experiments were repeated at least three times.
Total RNA was extracted from the cell pellets by the RNeasy Mini kit (Cat #74104, QIAGEN, Germantown, MD), and 1 μg RNA was converted to cDNA using the Applied Biosystems High-Capacity cDNA Reverse Transcription Kit (Cat #43-688-14, ThermoFisher, Waltham, MA). Quantitative real-time PCR (real-time-qPCR) was performed using iTaq Universal SYBR Green Supermix (Cat #1725124, Bio-Rad, Hercules, CA). The PCR primers were: HBV mRNA forward, 5′-[…]-3′ (SEQ ID NO: 52), reverse, 5′-[…]-3′ (SEQ ID NO: 53); HBV pgRNA forward 5′-[…]-3′ (SEQ ID NO: 54), reverse 5′-[…]-3′ (SEQ ID NO: 55); and GAPDH forward 5′-[…]-3′ (SEQ ID NO: 56), reverse 5′-[…]-3′ (SEQ ID NO: 57). The gene expression levels were determined by the […] method and values were normalized to GAPDH expression as an internal control.
Total and protein-free HBV DNAs were extracted from whole cell lysate using the Hirt DNA method according to a previously published protocol. For HBV cccDNA analysis, the protein-free DNA was treated with 10 units of T5 exonuclease (NEB) at 37° C. for 30 min, followed by 95° C. for 5 min, and diluted 4-fold with nuclease-free water. Next, the cccDNA was cleaned with a DNA clean and concentrator kit (ZYMO Research, Irvine, CA) and used for PCR. HBV total DNA and cccDNA were analyzed by real-time PCR using a TaqMan PCR assay. The primers and probe used to amplify HBV total DNA were: HBV total DNA forward: 5′-[…]-3′ (SEQ ID NO: 58), reverse 5′-[…]-3′ (SEQ ID NO: 59), and internal probe: 5′-FAM-[…]-TAMRA-3′ (SEQ ID NO: 60). The primers and probe used to amplify HBV cccDNA (Genotype D, subtype ayw) were: forward: 5′-[…]-3′ (SEQ ID NO: 61), reverse 5′-[…]-3′ (SEQ ID NO: 62), and internal probe 5′-FAM-[…]-TAMRA-3′ (SEQ ID NO: 63). The PCR reactions were performed in 20 μl volumes and contained 2 μl DNA. The PCR conditions were: 95° C. for 10 min, followed by 45 cycles of 95° C. for 15 s and 64° C. for 30 s. The DNA levels were determined by the […] method and values were normalized to the control group.
Because the hepatoma cell line HepG2/2.2.15 is a traditional HBV cellular model used to test the efficacy and cytotoxicity of anti-HBV drugs, the synthetic gRNA/Cas9 RNPs were tested for their antiviral efficiency in HepG2/2.2.15 cells. […]
A general note: An ELISA detects its analyte on a solid surface through an enzyme-linked reagent.

For “GAAGCGAAGTGCACACGGTCNGG (guide GAAGCGAAGUGCACACGGUCNGG; complexed with Cas9 as ribonucleoprotein, chemistry not given here) [gRNA8, tested as synthetic gRNA/Cas9 RNP]”, under “HepG2/2.2.15 supernatant, 3 days after nucleofection, ELISA, vs scrambled gRNAc”, the “reduction in HBsAg expression” value was 50%.

Take “GATTGAGACCTTCGTCTGCGNGG (guide GAUUGAGACCUUCGUCUGCGNGG; complexed with Cas9 as ribonucleoprotein, chemistry not given here) [gRNA1, tested as synthetic gRNA/Cas9 RNP]”: the “reduction of HBV mRNA expression” value was ~ 50%.

For “GTCGCAGAAGATCTCAATCTNGG (guide GUCGCAGAAGAUCUCAAUCUNGG; complexed with Cas9 as ribonucleoprotein, chemistry not given here) [gRNA3, tested as synthetic gRNA/Cas9 RNP]”, the “reduction of HBV mRNA expression” value is ~ 50%.

These data come from patent US20260191793A1, “HBV SPECIFIC EXOSOMES AND USES THEREOF” (priority 2022, published 2026).
